The target in one experiment is T1, human TTK (Homo sapiens, UniProt P33981).
T1 construct: Active TTK was purchased from Invitrogen as an amino terminal GST fusion of full length human TTK; purchased Invitrogen
T1 sequence (P33981 1-857): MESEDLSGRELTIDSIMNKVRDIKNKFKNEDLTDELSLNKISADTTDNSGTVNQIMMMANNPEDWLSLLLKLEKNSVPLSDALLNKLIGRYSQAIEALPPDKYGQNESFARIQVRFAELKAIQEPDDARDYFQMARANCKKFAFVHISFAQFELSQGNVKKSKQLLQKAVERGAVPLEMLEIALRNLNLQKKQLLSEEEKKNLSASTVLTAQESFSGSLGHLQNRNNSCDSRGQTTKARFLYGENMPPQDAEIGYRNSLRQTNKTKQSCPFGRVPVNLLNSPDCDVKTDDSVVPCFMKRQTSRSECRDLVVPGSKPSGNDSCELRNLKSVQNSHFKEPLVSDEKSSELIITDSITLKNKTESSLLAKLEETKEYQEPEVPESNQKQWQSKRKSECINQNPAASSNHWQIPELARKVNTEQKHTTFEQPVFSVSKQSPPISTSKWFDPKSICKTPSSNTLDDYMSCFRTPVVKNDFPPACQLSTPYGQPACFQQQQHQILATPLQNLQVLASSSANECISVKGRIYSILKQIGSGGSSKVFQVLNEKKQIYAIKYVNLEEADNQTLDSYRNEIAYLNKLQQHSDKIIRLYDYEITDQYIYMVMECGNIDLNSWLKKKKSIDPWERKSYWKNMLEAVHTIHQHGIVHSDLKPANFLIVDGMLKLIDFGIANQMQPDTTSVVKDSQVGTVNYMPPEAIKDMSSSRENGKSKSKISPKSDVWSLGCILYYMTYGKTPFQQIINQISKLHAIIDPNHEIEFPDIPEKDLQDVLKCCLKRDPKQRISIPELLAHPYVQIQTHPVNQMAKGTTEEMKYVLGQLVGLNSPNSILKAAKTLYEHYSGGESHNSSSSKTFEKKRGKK
Kind of experiment: TTK inhibition assay (indirect ELISA). In kind it is biochemical. How it is done: Active TTK was purchased from Invitrogen as an amino terminal GST fusion of full length human TTK.
TTK activity was measured using an indirect ELISA detection system.
Compounds were pre-incubated in the presence of enzyme for 5 minutes prior to addition of ATP and the activity remaining quantified using the above described activity assay. The % Inhibition of a compound was determined using the following formula; % Inhibition=100×(1−(experimental value−background value)/(high activity control−background value)). The IC50 value was determined using a non-linear 4 point logistic curve fit (XLfit4, IDBS) with the formula; (A+(B/(1+((x/C)^D)))), where A=background value, B=range, C=inflection point, D=curve fit parameter.

In experiment [1] the test system is breast cancer cells (MDA-MB-468). Briefly: Cancer cell line growth inhibition, Sulforhodamine B assay, MDA-MB-468. In kind it is cell-based. Conditions: Homo sapiens, read-out: Cancer Cell Line GI50 Range MDA-MB-468. The protocol: (§1) Breast cancer cells (MDA-MB-231 and MDA-MB-468), colon cancer cells (HCT116) and ovarian cancer cells (PA-1 and OVCAR-3) were seeded (1000 to 4000 in 80 μl per well depending on the cell growth rate) into 96 well plates 24 hours before compound overlay. Compounds were prepared as 10 mM stock solutions in 100% DMSO which were diluted with DMEM (Dulbecco's Modified Eagle's Medium) cell growth Medium (Invitrogen, Burlington, ON, Canada) containing 10% FBS (Fetal Bovine Serum) to concentrations ranging from 50 nM to 250 μM. Aliquots (20 μl) from each concentration were overlaid to 80 μl of the pre-seeded cells in the 96 well plates to make final concentrations of 10 nM to 50 μM. The cells were cultured for 5 days before the Sulforhodamine B assay (SRB) was performed to determine the compound's cell growth inhibition activity.
(§2) Sulforhodamine B (purchased from Sigma, Oakville, ON, Canada) is a water-soluble dye that binds to the basic amino acids of the cellular proteins. Thus, colorimetric measurement of the bound dye provides an estimate of the total protein mass that is related to the cell number. the cells are fixed in situ by gently aspirating off the culture media and adding 50 μl ice cold 10% Trichloroacetic Acid (TCA) per well and incubate at 4° C. for 30-60 min, The plates are washed with H2O five times and allowed to air dry for 5 min. Addition of 50 μl 0.4% (w/v) SRB solution in 1% (v/v) acetic acid to each well and incubation for 30 min at RT completes the staining reaction. Following staining, plates are washed four times with 1% acetic acid to remove unbound dye and then allowed to air dry for 5 min. The stain is solubilized with 100 μl of 10 mM Tris pH 10.5 per well. Absorbance is read at 570 nm.
(§3) The percentage (%) of relative growth inhibition was calculated by comparing to DMSO treated only cells (100%). GI50's were determined for compounds with cytotoxic activity. The GI50 was calculated using GraphPad PRISM software (GraphPad Software, Inc., San Diego, Calif., USA).
(§4) In Table 1 below, GI50 value ranges for compound examples against breast cancer cell lines (MDA-MB-468), colon cancer cell lines (HCT116) and ovarian cancer cell lines (PA-1) are given.
(§5) In Table 3 below, GI50 value ranges for compound examples against breast cancer cell lines (MDA-MB-468), colon cancer cell lines (HCT116) and ovarian cancer cell lines (OVCAR-3) are given.
In general terms: Sulforhodamine B stains cellular protein and so reports cell mass.

For experiment [2], the system named is ovarian cancer cells (OVCAR-3). Kind of experiment: Cancer cell line growth inhibition, Sulforhodamine B assay, OVCAR-3. In kind it is cell-based. Conditions: Homo sapiens, read-out: Cancer Cell Line GI50 Range OVCAR-3. How it is done:
as §1, §2, §3, §5

Experiment [3] relates to colon cancer cells (HCT116). Briefly: Cancer cell line growth inhibition, Sulforhodamine B assay, HCT116. In kind it is cell-based. Conditions: Homo sapiens, HCT-116, HCT116 colon cancer cell line; read-out: Cancer Cell Line GI50 Range HCT116. The protocol: as §1, §2, §3, §4
In Table 2 below, GI50 value ranges for compound examples against breast cancer cell lines (MDA-MB-231), colon cancer cell lines (HCT116) and ovarian cancer cell lines (PA-1) are given.
as §5

[4] abbreviates: 100 μM ATP, read-out: TTK IC50 Range.
The mark [5] stands for this setting: MDA-MB-468, MDA-MB-468 breast cancer cell line.
Where [6] appears, read: OVCAR-3, OVCAR-3 ovarian cancer cell line.
Where [7] appears, read: 16 μM ATP (Sigma cat# A7699), read-out: TTK IC50 Range (denoted with an asterisk).
Where [8] appears, read: MDA-MB-468 breast cancer cell line.
Setting [9] is: OVCAR-3 ovarian cancer cell line.

Like-named read-outs stand apart in the source and are kept apart here.

`Cc1cc(-c2cnn3c(NC[C@H]4C[C@@H](O)C4)cc(NC4CCOCC4)nc23)ccc1C(=O)NC1CC1` [Example C156]: on human TTK (setting [4]), the IC50 is less than 100 nM. Moreover, the GI50 in experiment [1] (setting [5]), in experiment [2] (setting [6]) and in experiment [3] was 100 to 500 nM each time.
Take `Cc1cc(-c2cnn3c(NC[C@H]4CCOC4)cc(N[C@H]4CCCC[C@H]4O)nc23)ccc1C(=O)NC1CC1` [Example C35, N-cyclopropyl-4-(5-(((1S,2R)-2-hydroxycyclohexyl)amino)-7-((((R)-tetrahydrofuran-3-yl)methyl)amino)pyrazolo[1,5-a]pyrimidin-3-yl)-2-methylbenzamide]: the IC50 on human TTK (setting [4]) is less than 100 nM. Moreover, the GI50 in experiment [1] (setting [5]), in experiment [2] (setting [6]) and in experiment [3] was no more than 100 nM in each case.
Take `Cc1cc(-c2cnn3c(NCC4CC4)cc(Oc4cccnc4)nc23)ccc1C(=O)NC1CC1` [Example C152]: the IC50 on human TTK (setting [4]) is less than 100 nM. In addition, the GI50 in experiment [1] (setting [5]), in experiment [2] (setting [6]) and in experiment [3] was no more than 100 nM each time.
Take `Cc1cc(-c2cnn3c(NCC4CCOCC4)cc(NC4(CO)CCOCC4)nc23)ccc1C(=O)NC1CC1` [Example C88]: at human TTK (setting [4]), the IC50 is less than 100 nM. Moreover, the GI50 is 100 to 500 nM in experiment [1] (setting [5]), greater than 500 nM in experiment [2] (setting [6]) and greater than 500 nM in experiment [3].
For `Cc1cc(-c2cnn3c(NCC4CCOCC4)cc(N[C@H]4CCCOC4)nc23)ccc1C(=O)NC1CC1` [Example C83], the IC50 at human TTK (setting [4]) is less than 100 nM. The GI50 was 100 to 500 nM in experiment [1] (setting [5]), 100 to 500 nM in experiment [2] (setting [6]) and no more than 100 nM in experiment [3].
For the compound `Cc1cc(-c2cnn3c(NCC4(CO)CCOCC4)cc(Oc4cccnc4)nc23)ccc1C(=O)NC1CC1` [Example C99], the IC50 on human TTK (setting [4]) was less than 100 nM. Besides, the results for the GI50 in experiment [1] (setting [5]), in experiment [2] (setting [6]) and in experiment [3] were greater than 500 nM, greater than 500 nM and 100 to 500 nM, respectively.
`Cc1cc(-c2cnn3c(NCCCS(C)(=O)=O)cc(NC4CCOCC4)nc23)ccc1C(=O)NC1CC1` [Example C140]: the IC50 at human TTK (setting [4]) was less than 100 nM.
Consider `O=C(NC1CC1)c1ccc(-c2cnn3c(NCCCN4CCOCC4)nc(Oc4ccccc4)nc23)cc1` [Example C1, N-cyclopropyl-4-(4-((3-morpholinopropyl)amino)-2-phenoxypyrazolo[1,5-a][1,3,5]triazin-8-yl)benzamide], for which the IC50 at human TTK (setting [7]) is less than 100 nM.
Turning to `O=C(NC1CC1)c1ccc(-c2cnn3c(NCC4CCOCC4)nc(N4CCCCC4)nc23)cc1Cl` [Example C16], the IC50 at human TTK (setting [7]) is less than 100 nM.
Regarding `Cc1cc(-c2cnn3c(NCC4(CO)CCOCC4)cc(NC4CCOCC4)nc23)ccc1C(=O)NC1CC1` [Example C93], the IC50 at human TTK (setting [4]) was less than 100 nM.
For `CC(C)NC(=O)c1ccc(-c2cnn3c(NCC4CCOCC4)nc(Oc4ccccc4)nc23)cc1` [Example C2], the IC50 on human TTK (setting [7]) was 100 to 500 nM.
For the compound `CC(C)CNc1cc(-c2cccc3ncccc23)nc2c(-c3ccc(C(=O)NC4CC4)cc3)cnn12` [Example C155], the IC50 at human TTK (setting [4]) was greater than 500 nM.
Take `CC(C)NC(=O)c1ccc(-c2cnn3c(NCC4CCOCC4)nc(OC4CCCC4)nc23)cc1` [Example C4]: the IC50 on human TTK (setting [7]) was in the range of 100 to 500 nM.
Turning to `Cc1cc(-c2cnn3c(NCCN4CCC(O)CC4)cc(NC4CCCC4)nc23)ccc1C(=O)NC1CC1` [Example C168], the IC50 at human TTK (setting [4]) was less than 100 nM.
On the same count and under the same terms, as for `Cc1cc(-c2cnn3c(NCC4CCOCC4)cc(NC4COC4)nc23)ccc1C(=O)NC1CC1` [Example C102], the figure is less than 100 nM.
For `Cc1cc(-c2cnn3c(NCC4CCOCC4)cc(OC4CCN(C5COC5)CC4)nc23)ccc1C(=O)NC1CC1` [Example C115], the IC50 at human TTK (setting [4]) was less than 100 nM.
On to `Cc1cc(-c2cnn3c(NCC4CCOCC4)cc(NC[C@@H]4CCCO4)nc23)ccc1C(=O)NC1CC1` [Example C29, (S)-N-cyclopropyl-2-methyl-4-(7-(((tetrahydro-2H-pyran-4-yl)methyl)amino)-5-(((tetrahydrofuran-2-yl)methyl)amino)pyrazolo[1,5-a]pyrimidin-3-yl)benzamide], for which, at human TTK (setting [4]), the IC50 was less than 100 nM.
For the compound `Cc1cc(-c2cnn3c(NC[C@H]4C[C@](C)(O)C4)cc(Oc4cccnc4)nc23)ccc1C(=O)NC1CC1` [Example C135], the concentration for 50% growth inhibition (GI50) in experiment [1] (setting [8]) is no more than 100 nM; in experiment [2] (setting [9]), 100 to 500 nM; in experiment [3], no more than 100 nM.
Turning to `Cc1cc(-c2cnn3c(NCC4CCOCC4)cc(Oc4ccncc4)nc23)ccc1C(=O)NC1CC1` [Example C50], at human TTK (setting [4]), the IC50 was greater than 500 nM.
Regarding `COCCNc1cc(NC2CCCC2)nc2c(-c3ccc(C(=O)NC4CC4)c(C)c3)cnn12` [Example C80], the IC50 at human TTK (setting [4]) is less than 100 nM.
Take `Cc1cc(-c2cnn3c(NC[C@H]4C[C@@](C)(O)C4)cc(Oc4cccnc4)nc23)ccc1C(=O)NC1CC1` [Example C43, N-cyclopropyl-4-(7-((((1s,3s)-3-hydroxy-3-methylcyclobutyl)methyl)amino)-5-(pyridin-3-yloxy)pyrazolo[1,5-a]pyrimidin-3-yl)-2-methylbenzamide]: the GI50 in experiment [1] (setting [8]), in experiment [2] (setting [9]) and in experiment [3] was no more than 100 nM throughout.
For the compound `Cc1cc(-c2cnn3c(NCCN4CCOCC4)cc(NCc4cccnc4)nc23)ccc1C(=O)NC1CC1` [Example C75], on human TTK (setting [4]), the half-inhibitory concentration (IC50) is less than 100 nM.
For the compound `CC[C@H](Nc1cc(NCC2CCOCC2)n2ncc(-c3ccc(C(=O)NC4CC4)c(C)c3)c2n1)[C@H](C)O` [Example B30, N-cyclopropyl-4-(5-(((2S,3S)-2-hydroxypentan-3-yl)amino)-7-(((tetrahydro-2H-pyran-4-yl)methyl)amino)pyrazolo[1,5-a]pyrimidin-3-yl)-2-methylbenzamide], the IC50 at human TTK (Table 2, 16 μM ATP (asterisk), read-out: TTK IC50 Range) was less than 100 nM.
As to `CC(C)C(=O)Nc1ccc(-c2cnn3c(NCC4CCOCC4)nc(Oc4ccccc4)nc23)cc1` [Example C3], at human TTK (setting [7]), the IC50 was greater than 500 nM.
Take `COCCNc1nc(Oc2ccccc2)nc2c(-c3ccc(C(=O)NC4CC4)cc3)cnn12` [Example C6]: the IC50 on human TTK (setting [7]) was less than 100 nM.

A word on the IC50: it is the concentration that inhibits the measured activity by half. The GI50 is the concentration at which growth is held to half of that of the control.
